Assay [1] concerns the target EGFR (UniProt P00533). Conditions: for inhibition: concentration not given here.
Assay [2] concerns the target EGFR (human) (UniProt P00533). As to conditions: mda-mb-435.
In assay [3] the target is EGFR (human) (UniProt P00533). Conditions: sk-br-3.
Assay [4] has as its target EGFR (human) (UniProt P00533). As to conditions: sw 620.
Assay [5] has as its target EGFR (human) (UniProt P00533). As to conditions: 3t3.
The target of assay [6] is EGFR (human) (UniProt P00533). Conditions: a431.
In assay [7] the target is EGFR (human) (UniProt P00533). As to conditions: a2780.
Assay [8] addresses EGFR (human) (UniProt P00533). Conditions: ddp.

The term inhibition denotes the drop in the measured response relative to a control, in per cent. The IC50 is the concentration that gives 50% inhibition. Higher therefore signals lower potency.

≈ marks a conversion by molar mass, not a printed value.

Chain of EGFR (P00533 whole entry, looked up): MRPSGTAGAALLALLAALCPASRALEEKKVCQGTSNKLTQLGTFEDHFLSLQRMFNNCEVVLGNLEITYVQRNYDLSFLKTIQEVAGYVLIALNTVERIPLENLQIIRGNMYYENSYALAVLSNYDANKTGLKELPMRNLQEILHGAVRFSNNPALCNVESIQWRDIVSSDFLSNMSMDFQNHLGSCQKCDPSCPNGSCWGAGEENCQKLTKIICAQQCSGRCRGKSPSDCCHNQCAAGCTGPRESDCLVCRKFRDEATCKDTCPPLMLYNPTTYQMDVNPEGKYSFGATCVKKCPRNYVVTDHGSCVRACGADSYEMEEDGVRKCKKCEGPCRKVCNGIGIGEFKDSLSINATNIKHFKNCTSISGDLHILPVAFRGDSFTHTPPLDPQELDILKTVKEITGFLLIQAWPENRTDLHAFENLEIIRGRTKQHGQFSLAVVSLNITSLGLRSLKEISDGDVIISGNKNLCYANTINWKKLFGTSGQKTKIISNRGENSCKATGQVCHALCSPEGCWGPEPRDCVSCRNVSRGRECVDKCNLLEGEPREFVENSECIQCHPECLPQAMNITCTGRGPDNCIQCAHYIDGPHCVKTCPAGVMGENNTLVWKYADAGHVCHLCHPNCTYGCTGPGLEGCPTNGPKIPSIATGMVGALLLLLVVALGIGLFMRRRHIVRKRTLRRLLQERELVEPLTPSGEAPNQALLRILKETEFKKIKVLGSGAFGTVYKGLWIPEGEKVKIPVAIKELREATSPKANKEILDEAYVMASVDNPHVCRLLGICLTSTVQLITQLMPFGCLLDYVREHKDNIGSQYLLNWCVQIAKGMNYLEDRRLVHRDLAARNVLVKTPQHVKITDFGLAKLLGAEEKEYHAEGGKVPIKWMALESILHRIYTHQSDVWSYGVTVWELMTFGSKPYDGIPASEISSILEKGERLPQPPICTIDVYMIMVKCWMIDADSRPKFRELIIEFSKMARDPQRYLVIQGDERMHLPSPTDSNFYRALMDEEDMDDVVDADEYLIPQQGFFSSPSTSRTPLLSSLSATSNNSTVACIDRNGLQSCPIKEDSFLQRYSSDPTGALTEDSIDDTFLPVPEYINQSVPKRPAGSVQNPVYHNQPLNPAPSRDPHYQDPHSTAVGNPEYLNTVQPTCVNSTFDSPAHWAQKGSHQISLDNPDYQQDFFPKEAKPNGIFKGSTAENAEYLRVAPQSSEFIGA
Chain of EGFR (human) (P00533 whole entry, looked up): as above

Consider `COc1cc2ncc(C#N)c(Nc3ccc4[nH]ncc4c3)c2cc1OC`, for which the inhibition in assay [1] stood at 0%.
On the same count and under the same terms, the result for `COc1cc2ncc(C#N)c(Nc3cccc4ncccc34)c2cc1OC` reads 0%.
For `CCOc1cc2ncc(C#N)c(Nc3ccc4c(c3)CCC4)c2cc1OCC`, the IC50 in assay [2] was 0.352 µg/mL (≈ 0.943 µM); in assay [3] it was above 0.294 µg/mL; in assay [4], below 0.0005 µg/mL; in assay [5] it was 0.525 µg/mL (≈ 1.41 µM).
As to `CCOc1cc2ncc(C#N)c(Nc3ccc4c(c3)NCC4)c2cc1OCC`, in assay [1], the IC50 was above 10000 nM and the inhibition was 6%.
For `CCOc1cc2c(Nc3ccc4cn[nH]c4c3)c(C#N)cnc2cc1OC`, the IC50 in assay [2] is 2.63 µg/mL (≈ 7.31 µM); in assay [3] it was 2.09 µg/mL (≈ 5.83 µM); in assay [4], 4.31 µg/mL (≈ 12 µM); in assay [5], 3.22 µg/mL (≈ 8.96 µM).
In turn, `COc1cc2ncc(C#N)c(Nc3ccc4[nH]c(=O)sc4c3)c2cc1OC` yielded an inhibition in assay [1] of 0%.
With `CCOc1cc2ncc(C#N)c(Nc3ccc4c(c3)C(=O)OC4)c2cc1OCC`, the concentration for half-maximal inhibition (IC50) is 3.4 µg/mL (≈ 8.74 µM) in assay [2], above 5 µg/mL in assay [6], above 5 µg/mL in assay [3] and 1.56 µg/mL (≈ 4.02 µM) in assay [4].
On to `CCOc1cc2ncc(C#N)c(Nc3ccc4c(c3)CCC4=O)c2cc1OCC`, for which the IC50 worked out at 0.028 µg/mL (≈ 0.0723 µM) in assay [2], 0.0244 µg/mL (≈ 0.063 µM) in assay [6], 0.0281 µg/mL (≈ 0.0725 µM) in assay [3] and 0.0923 µg/mL (≈ 0.238 µM) in assay [5].
As for `Cn1ccnc1Sc1ccc(Nc2c(C#N)cnc3ccc(/C=C/C(N)=O)cc23)cc1Cl`, the IC50 in assay [1] came to 10 nM.
Consider `CCOc1cc2ncc(C#N)c(Nc3ccc4c(C)cc(=O)oc4c3)c2cc1OCC`, for which the IC50 in assay [6] was 0.369 µg/mL (≈ 0.888 µM); in assay [3], 0.429 µg/mL (≈ 1.03 µM); in assay [7] it was 0.27 µg/mL (≈ 0.65 µM); in assay [8], 0.249 µg/mL (≈ 0.599 µM); in assay [4], 0.325 µg/mL (≈ 0.782 µM).
On to `CCOc1cc2ncc(C#N)c(Nc3ccc4[nH]c(=O)oc(=O)c4c3)c2cc1OCC`, for which the IC50 in assay [2] was above 5 µg/mL; in assay [6], above 5 µg/mL; in assay [3], above 5 µg/mL; in assay [4], 2.92 µg/mL (≈ 6.98 µM); in assay [5] it was above 5 µg/mL.
Turning to `COc1cc2ncc(C#N)c(Nc3ccc(O)c4ncccc34)c2cc1OC`, the inhibition in assay [1] is 0%.
In the case of `CCOc1cc2ncc(C#N)c(Nc3ccc4c(c3)S(=O)(=O)C=C4)c2cc1OCC`, the IC50 in assay [2] was found to be 0.0033 µg/mL (≈ 0.00783 µM); in assay [3] it was 0.336 µg/mL (≈ 0.797 µM); in assay [4], 0.146 µg/mL (≈ 0.346 µM); in assay [5] it was 0.392 µg/mL (≈ 0.93 µM).
The matching figures for `CCOc1cc2ncc(C#N)c(Nc3ccc4c(c3)OCCO4)c2cc1OCC`: 0.235 µg/mL (≈ 0.6 µM), 0.281 µg/mL (≈ 0.718 µM), 0.411 µg/mL (≈ 1.05 µM) and 0.853 µg/mL (≈ 2.18 µM).
Take `COc1cc2c(Nc3ccc4cn[nH]c4c3)c(C#N)cnc2cc1OCCN(C)C`: the inhibition in assay [1] came to 0%.
Turning to `CCOc1cc2ncc(C#N)c(Nc3ccc4c(c3)C(=O)NCC(=O)N4C)c2cc1OCC`, the IC50 in assay [2], in assay [6], in assay [3] and in assay [4] was above 5 µg/mL in each case.
For the compound `COCCOc1cc2ncc(C#N)c(Nc3ccc4cn[nH]c4c3)c2cc1OCCOC`, the IC50 in assay [2] is 2.04 µg/mL (≈ 4.72 µM); in assay [3], above 5 µg/mL; in assay [4] it was above 5 µg/mL; in assay [5], above 5 µg/mL.
Take `CCOc1cc2ncc(C#N)c(Nc3ccc4cn[nH]c4c3)c2cc1OCC`: the half-maximal inhibitory concentration (IC50) was determined as 0.02 µg/mL (≈ 0.0536 µM) in assay [2]; 0.025 µg/mL (≈ 0.0669 µM) in assay [6]; 0.016 µg/mL (≈ 0.0428 µM) in assay [3]; 0.032 µg/mL (≈ 0.0857 µM) in assay [7]; 0.036 µg/mL (≈ 0.0964 µM) in assay [8]; 0.033 µg/mL (≈ 0.0884 µM) in assay [4].
With `CCOc1cc2ncc(C#N)c(Nc3ccc4c[nH]nc4c3)c2cc1OC`, the IC50 in assay [2] turned out to be 0.0359 µg/mL (≈ 0.0999 µM); in assay [3], 0.022 µg/mL (≈ 0.0612 µM); in assay [4], 0.0212 µg/mL (≈ 0.059 µM).
`COc1cc2ncc(C#N)c(Nc3ccc4[nH]ccc4c3)c2cc1OC` registered an IC50 in assay [1] of 1.5 to 4 nM.
Take `CCOc1cc2ncc(C#N)c(Nc3ccc4cc[nH]c4c3)c2cc1OCC`: the IC50 in assay [2] was 0.073 to 0.365 µg/mL (≈ 0.196 to 0.98 µM); in assay [6] it was 0.123 to 0.216 µg/mL (≈ 0.33 to 0.58 µM); in assay [3] it was 0.0374 to 0.18 µg/mL (≈ 0.1 to 0.483 µM); in assay [7] it was 0.231 µg/mL (≈ 0.62 µM); in assay [8], 0.313 µg/mL (≈ 0.84 µM); in assay [4], 0.286 to 0.326 µg/mL (≈ 0.768 to 0.875 µM).
In turn, `COc1cc2ncc(C#N)c(Nc3cccc4cnccc34)c2cc1OC` had an inhibition in assay [1] of 0%.
As for `CCOc1cc2ncc(C#N)c(Nc3ccc4c(=O)[nH][nH]c(=O)c4c3)c2cc1OCC`, the IC50 in assay [2], in assay [6], in assay [3], in assay [4] and in assay [5] was above 5 µg/mL each time.

Source of the values: the Kinase Knowledgebase extract (Sharma et al. 2016).
